Measured values reported in patent US20230034584A1, “INHIBITORS OF SHP2” (Bayer Aktiengesellschaft, priority 2019, published 2023).
Read-outs that look alike come from different tables or passages of the source.

Experiments:
[1] = test system: ERK1/2 Thr202/Tyr204-phosphorylation in human renal proximal tubular epithelial cells (RPTEC); assay: Phospho-ERK cellular assay (HTRF); assay type: cell-based; conditions: read-out: IC50, inhibition of ERK phosphorylation
Description: Cellular pERK assay was used to determine compound activity on modulating ERK1/2 Thr202/Tyr204-phosphorylation in renal cells. […] The intracellular levels of ERK1/2 phosphorylated at Thr202/Tyr204 were quantified with Advanced Phospho-ERK HTRF assay (Cisbio, Cat. #64AERPEH). Compound incubation was terminated by addition of 16 μL lysis buffer (Cisbio) and 4 μL pERK HTRF® antibody cocktail (Cisbio).

MRL/lpr mice = MRL/lpr mice treated with the SHP2 inhibitor; cited from earlier work
20 other PTPs = conditions: literature value; cited from earlier work
C57/Bl6J mice with UUO [2] = assay: Unilateral ureteral obstruction (UUO) mouse model, 10 days, fibrosis markers; assay type: in vivo; conditions: for Collagen content (Sirius Red/Fast Green staining) of obstructed kidney / αSMA-positive area within the obstructed kidney: ten days, histology
Description: Experiments indicative for chronic kidney diseases were carried out in unilateral ureteral obstruction (UUO) mouse models (examples 1). Such treatment results in the short version of the UUO model (3 days) in pronounced macrophage infiltration into the affected kidney, which is one of the triggers for the subsequent interstitial fibrosis and nephron damage. Collagen expression is increased in UUO after 10 days as a result of renal fibrosis, while alpha-smooth muscle actin (ASMA) expression is increased as a result of reduced renal function, or fibroblast expansion (see Chevalier et al, 2009). The study was performed on male C57/Bl6J mice (age: 7-8 weeks) that were obtained from Charles River. Mice were anesthetized with continuous inhaled isoflurane, and the left ureter was exposed via a mid-abdominal incision. The mid-ureter was obstructed by two point ligation with silk sutures. The SHAM-operated mouse (n=6) underwent the same procedure except for the obstruction of the left ureter. The mice were randomized into four groups (n=10 each group): UUO plus vehicle (10% EtOH/40% PEG/50% water), UUO plus 3 [mg/kg] SHP099, UUO plus 30 [mg/kg] SHP099. Mice were dosed bidaily with vehicle and SHP099. The forth group of mice with UUO was treated once daily with Tivozanib (technical control). At ten days after surgery, mice were euthanized, and kidneys were collected and divided in two parts. One part was snap-frozen in liquid nitrogen for RNA analysis. The other part was stored in Davidson's fixative for the preparation of histological sections. Total RNA was isolated from parts of harvested kidneys. Kidney tissue was homogenized and RNA was obtained and transcribed to cDNA. Using TaqMan real time PCR renal mRNA expression of fibrotic markers was analyzed in kidney tissues. For the assessment of fibrosis on the protein level paraffin tissue sections were stained with alpha-smooth muscle actin (αSMA) and Sirius Red/Fast Green Collagen Stainings using standard procedures. Quantitative measurements of alpha-smooth muscle actin (αSMA)-positive as well as Sirius Red (Collagen) positive areas within the kidneys were obtained by computer image analysis using the Axio Scan Z1 (Zeiss) microscope and the Zen software. All data are expressed as means±S.D. Differences between groups were analyzed by one-way ANOVA with Dunnett's corrections for multiple comparisons. Statistical significance was defined as p<0.05.

log D = assay type: physicochemical
C57/Bl6J mice with UUO [3] = assay: UUO mouse model, macrophage infiltration by flow cytometry (CD45, F4/80); assay type: in vivo; conditions: 1 and 10 mg/kg once daily p.o.
Description: Experiments indicative for chronic kidney diseases were carried out in unilateral ureteral obstruction (UUO) mouse models (examples 1). Such treatment results in the short version of the UUO model (3 days) in pronounced macrophage infiltration into the affected kidney, which is one of the triggers for the subsequent interstitial fibrosis and nephron damage. Collagen expression is increased in UUO after 10 days as a result of renal fibrosis, while alpha-smooth muscle actin (ASMA) expression is increased as a result of reduced renal function, or fibroblast expansion (see Chevalier et al, 2009).
(§1) The study was performed on male C57/Bl6J mice (age: 7-8 weeks) that were obtained from Charles River. Mice were anesthetized with continuous inhaled isoflurane, and the left ureter was exposed via a mid-abdominal incision. The mid-ureter was obstructed by two point ligation with silk sutures. The SHAM-operated mouse (n=6) underwent the same procedure except for the obstruction of the left ureter. […] As a placebo, a solution without active ingredient was used (group 2), and a sham operated group with unligated kidney was used as a […] (group 1)
The infiltration of macrophages in response to the renal injury was measured in a flow cytometry assay with detection antibodies binding to the pan-leukocyte marker CD45, as well as to the macrophage-specific antigen. F4/80.

[4] = test system: pERK levels in the injured kidneys; assay: Phospho-ERK quantification in kidney lysates (HTRF), UUO mice; assay type: in vivo, mouse; conditions: 1 and 10 mg/kg once daily p.o.
Description: Kidney tissue from animal studies was homogenized in supplemented HTRF lysis buffer (Cisbio). The volume of lysis buffer is adjusted at 1 mL per 100 mg tissue. Homogenization was performed with […] steel beads in Mixer Mill (Retsch, MM300) for 2.5 min/25 Hz, followed by sample cooling on ice. The protein concentration in tissue lysates was adjusted to 0.1-0.5 mg/mL and HTRF pERK assay performed as described above.
as §1

[5] = human proximal tubular epithelial cells (immortalized RPTEC), pERK HTRF
[6] = 3 and 30 mg/kg bidaily, ten days after surgery, TaqMan PCR

C[C@@H]1OCC2(CCN(c3cnc(Sc4ccnc(N)c4Cl)c(N)n3)CC2)[C@@H]1N [TNO-155, (3S,4S)-8-(6-amino-5-((2-amino-3-chloropyridin-4-yl)thio)pyrazin-2-yl)-3-methyl-2-oxa-8-azaspiro[4.5]decan-4-amine]
IC50 [1, 5]: 0.0464 µM

Cn1c(-c2cccc(NC(=O)C(=O)Nc3ccc(-c4ccsc4)cc3)c2)c(I)c2cc(C(=O)O)c(O)cc21 [11a-1]
progression of kidney disease in SLE-prone mice (MRL/lpr mice): prevented the progression of kidney disease
selectivity against any of 20 other PTPs (20 other PTPs): > 5 fold

COc1cc2nccc(Oc3ccc(NC(=O)Nc4cc(C)on4)c(Cl)c3)c2cc1OC [Tivozanib]
Collagen content (Sirius Red/Fast Green staining) of obstructed kidney (C57/Bl6J mice with UUO [2]; once daily (technical control)): significantly reduced
αSMA-positive area within the obstructed kidney (C57/Bl6J mice with UUO [2]; once daily (technical control)): significantly reduced

CC1(N)CCN(c2cnc(-c3cccc(Cl)c3Cl)c(N)n2)CC1 [SHP099]
αSMA-positive area within the obstructed kidney (C57/Bl6J mice with UUO [2]; 3 mg/kg bidaily): significant reduction
collagen RNA expression in kidney (C57/Bl6J mice with UUO [2]; [6]): dose-dependent reduction
αSMA RNA expression in kidney (C57/Bl6J mice with UUO [2]; [6]): dose-dependent reduction
Collagen content (Sirius Red/Fast Green staining) of obstructed kidney (C57/Bl6J mice with UUO [2]; both dosages (3 and 30 mg/kg bidaily)): dose dependently and significantly reduced
IC50 [1, 5]: 0.306 µM

Cc1nc(N2CCC3(CC2)CO[C@@H](C)[C@H]3N)c(CO)nc1-c1cccc(Cl)c1Cl [RMC-4550, [3-[(3S,4S)-4-amino-3-methyl-2-oxa-8-azaspiro[4.5]decan-8-yl]-6-(2,3-dichlorophenyl)-5-methylpyrazin-2-yl}methanol]
logD (log D): 2.2
macrophage infiltration into the kidney (C57/Bl6J mice with UUO [3]): significant, dose-dependent reduction
pERK levels in the injured kidneys [4]: dose-dependently reduced
IC50 ([1]; Homo sapiens, RPTEC): 0.0126 µM
